Legend:
Assay in all cases: relative viability (nuclei count vs DMSO), 5 days (fraction); higher = more cells survive
[1] = compound: C1=CC=C2C(=C1)N=C(S2)C(C#N)C3=NC(=NC=C3)NCCC4=CN=CC=C4 + Cc1nc(Nc2ncc(C(=O)Nc3c(C)cccc3Cl)s2)cc(N2CCN(CCO)CC2)n1 [Dasatinib] (partner 0.075 µM)
Summary of the method: (§1)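 The day after seeding in 1536-well plates, lung cancer cell lines were treated by pin tool with a single drug, or with a fixed anchor-drug dose together with five library-drug doses (not always all listed) in √10 steps. After 5 days, a combined fix-and-stain solution (final 0.05% Triton X-100, 1% formaldehyde, 1 ug/ml Hoechst) was added. Nuclei counted on 4× images gave relative viability as treated counts over vehicle counts, reported as the median of duplicate plates.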

[2] = compound: C1=CC=C2C(=C1)N=C(S2)C(C#N)C3=NC(=NC=C3)NCCC4=CN=CC=C4 + CC(=O)c1c(C)c2cnc(Nc3ccc(N4CCNCC4)cn3)nc2n(C2CCCC2)c1=O [Palbociclib] (partner 0.5 µM)
Summary of the method: as §1

[3] = compound: C#Cc1cccc(Nc2ncnc3cc(OC)c(OCCCCCCC(=O)NO)cc23)c1 [CUDC-101] + C[C@@H](Oc1cc(-c2cnn(C3CCNCC3)c2)cnc1N)c1c(Cl)ccc(F)c1Cl [Crizotinib] (partner 1 µM)
Summary of the method: as §1

[4] = compound: COc1cc2/c(=N/c3ccc(Br)cc3F)nc[nH]c2cc1OCC1CCN(C)CC1 [Vandetanib] + CS(=O)(=O)CCNCc1ccc(-c2ccc3ncnc(Nc4ccc(OCc5cccc(F)c5)c(Cl)c4)c3c2)o1 [Lapatinib] (partner 2 µM)
Summary of the method: as §1

Row | Cell Line | relative viability ([1]; first compound 0.005 µM) | relative viability ([1]; first compound 0.01581 µM) | relative viability ([1]; first compound 0.05 µM) | relative viability ([1]; first compound 0.1581 µM) | relative viability ([1]; first compound 0.5 µM) | relative viability ([2]; first compound 0.005 µM) | relative viability ([2]; first compound 0.01581 µM) | relative viability ([2]; first compound 0.05 µM) | relative viability ([2]; first compound 0.1581 µM) | relative viability ([2]; first compound 0.5 µM) | relative viability ([3]; first compound 0.01 µM) | relative viability ([3]; first compound 0.03162 µM) | relative viability ([3]; first compound 0.1 µM) | relative viability ([3]; first compound 0.3162 µM) | relative viability ([3]; first compound 1 µM) | relative viability ([4]; first compound 0.02 µM) | relative viability ([4]; first compound 0.06325 µM) | relative viability ([4]; first compound 0.2 µM) | relative viability ([4]; first compound 0.6325 µM) | relative viability ([4]; first compound 2 µM)
1 | HCC-827 | 0.331 | 0.301 | 0.336 | 0.307 | 0.284 | 0.415 | 0.597 | 0.432 | 0.492 | 0.512 | 0.966 | 0.501 | 0.298 | 0.218 | 0.174 | 0.195 | 0.18 | 0.183 | 0.181 | 0.185
2 | HOP-62 | 0.496 | 0.59 | 0.685 | 0.807 | 0.565 | 0.412 | 0.571 | 0.432 | 0.471 | 0.474 | 0.95 | 0.753 | 1.03 | 0.925 | 0.666 | 0.81 | 0.923 | 1.07 | 0.932 | 0.892
3 | NCI-H1792 | 0.722 | 0.83 | 0.837 | 1.29 | 0.665 | 0.473 | 0.732 | 0.622 | 0.995 | 0.474 | 0.971 | 0.944 | 0.942 | 1.04 | 0.953 | 0.886 | 0.824 | 0.869 | 0.874 | 0.862
4 | HCC-15 | 0.569 | 0.578 | 0.564 | 0.703 | 0.508 | 0.701 | 0.771 | 0.734 | 0.74 | 0.627 | 0.804 | 0.836 | 0.798 | 0.843 | 0.715 | 0.824 | 0.772 | 0.798 | 0.878 | 0.937
5 | NCI-H1755 | 0.365 | 0.397 | 0.404 | 0.456 | 0.384 | 0.431 | 0.44 | 0.481 | 0.5 | 0.644 | 0.81 | 0.896 | 0.828 | 0.942 | 0.743 | 1.06 | 0.978 | 0.983 | 1.02 | 1.01
6 | NCI-H23 | 0.645 | 0.836 | 1.02 | 0.974 | 0.993 | – | 0.456 | 0.528 | 0.577 | 0.411 | 0.68 | 0.442 | 0.639 | 0.547 | 0.495 | 1.07 | 0.971 | 0.969 | 1.28 | 0.962
